Experimental findings from publication PMC4849654, “A High-Throughput Cell-Based Screen Identified a 2-[(E)-2-Phenylvinyl]-8-Quinolinol Core Structure That Activates p53” (PLoS ONE, 2016) are described below.

A word on the IC50: it is the concentration that inhibits the measured activity by half. The Kd is the free concentration of one partner at which half of the binding sites on the other are occupied at equilibrium, for simple one-to-one binding.

The test system of one experiment is HeLa cells. Put plainly: Cell viability (Cell Titer Glo), HeLa. The class given is cell-based. How it is done:
(§1) For the viability assays, 20,000 C33a, HeLa, or siHA cells were plated in white 96 well flat bottom plates. The cells were treated with compounds at concentrations from 0.5 to 30 μM for 48 hrs. After incubation, Cell Titer Glo (Promega) was added to the cells and luminescence read in a Tecan II plate reader. For annexin V and PI staining, 500,000 C33a cells were treated with inhibitor for 24 hrs. The cells were stained with Annexin V-FITC and PI according to eBioscience manufacturer’s instructions and analyzed by flow cytometry.
On the technique in general: Cellular ATP, detected with luciferase, serves as a proxy for viable cell number.

Experiment [1] relates to C33a cells. Put plainly: Cell cycle distribution by PI staining. The class given is cell-based.
Experiment [2] addresses T1, p53 (Homo sapiens, UniProt P04637).
T1 construct: purchased R&D systems
Put plainly: Surface plasmon resonance (Biacore) binding to p53. The note with it: SPR, recombinant p53 amine linked to Biacore chip, compound 1 to 25 μM. An excerpt: (§2) Free reactive amines were then blocked with ethanolamine.
In general terms: In SPR one partner is held on a chip, and binding of the other changes the refractive index at the surface.

A further experiment has as its target T2, E6AP (Homo sapiens, UniProt Q05086).
T2 sequence (Q05086 1-875): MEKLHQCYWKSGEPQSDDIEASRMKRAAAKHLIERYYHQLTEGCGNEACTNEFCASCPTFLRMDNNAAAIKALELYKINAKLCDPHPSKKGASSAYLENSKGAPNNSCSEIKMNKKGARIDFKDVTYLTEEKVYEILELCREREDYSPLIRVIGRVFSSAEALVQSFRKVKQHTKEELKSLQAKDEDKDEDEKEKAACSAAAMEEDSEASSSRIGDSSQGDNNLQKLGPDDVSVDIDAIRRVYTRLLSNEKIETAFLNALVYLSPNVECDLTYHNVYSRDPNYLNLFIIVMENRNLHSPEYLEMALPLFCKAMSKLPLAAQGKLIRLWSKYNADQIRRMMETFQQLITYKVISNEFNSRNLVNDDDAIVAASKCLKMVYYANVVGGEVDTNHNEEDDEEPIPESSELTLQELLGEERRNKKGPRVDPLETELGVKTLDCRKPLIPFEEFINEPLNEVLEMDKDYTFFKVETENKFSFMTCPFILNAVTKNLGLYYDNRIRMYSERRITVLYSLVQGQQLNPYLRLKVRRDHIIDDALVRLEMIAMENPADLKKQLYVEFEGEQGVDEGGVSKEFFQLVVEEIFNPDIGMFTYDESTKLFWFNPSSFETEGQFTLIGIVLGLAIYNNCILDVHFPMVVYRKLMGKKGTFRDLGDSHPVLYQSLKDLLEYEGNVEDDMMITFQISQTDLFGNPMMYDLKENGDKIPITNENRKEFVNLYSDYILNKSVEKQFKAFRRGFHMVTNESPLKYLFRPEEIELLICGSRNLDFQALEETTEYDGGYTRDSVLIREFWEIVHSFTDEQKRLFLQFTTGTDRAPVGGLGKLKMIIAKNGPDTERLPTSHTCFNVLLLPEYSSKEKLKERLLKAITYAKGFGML
Put plainly: Surface plasmon resonance binding to E6AP. The note with it: SPR, data not shown.
Excerpt: as §2

Experiment [3] has as its target T3, p53 (Homo sapiens, UniProt P04637, R273C).
T3 construct: endogenous in cells; host or cells: C33a
Put plainly: Nuclear/cytoplasmic fractionation and Western analysis of p53. The experiment is classed as cell-based. The note with it: C33a cells, 6 hrs, Western. How it is done:
For nuclear/cytoplasmic fractionation, 1 × 10^7 C33a cells were treated with 30 μM compound for 6 hrs. The cells were washed with PBS and lysed in 1000 μL of cytoplasmic extraction buffer (10 mM KCl, 10 mM HEPES, pH 7.9, 0.1 mM EDTA, 1 mM dithiothreitol) and incubated on ice for 20 min. 50 μL of 10% NP-40 was added to each lysate, vortexed and then centrifuged at 12,000 × g for 10 min. The cytosolic fraction was collected and the pellet containing the nuclei suspended in 50 μL of nuclear extraction buffer (0.4 M NaCl, 20 mM HEPES, pH 7.9, 1 mM EDTA). The nuclear fraction was incubated for 30 min on ice. The samples were spun at 14,000 × g for 10 min and the supernatants were collected. To concentrate the cytoplasmic fraction, 500 μL methanol, and 200 μL chloroform were added and the samples were vortexed, centrifuged for 10 min at 14,000 × g, and the upper and lower layer were discarded. The solid interphase was collected and suspended in 50 μL of lysis buffer. Equal cell equivalents were loaded on a gel and electrophoresed. For whole cell lysates, C33a cells were lysed with a modified RIPA buffer and subjected to SDS-PAGE electrophoresis. The gels were transferred to nitrocellulose and blots probed with antibodies for p53 (Santa Cruz, antibody FL-303), lamin A/C, and calnexin (Santa Cruz Biotechnology).

For a further experiment, the system named is SQ20B cells. Put plainly: Cell viability, SQ20B. The experiment is classed as cell-based. To be noted: mutant p53.
The subject of experiment [4] is C33a cells. Put plainly: Cell viability (Cell Titer Glo), C33a. The experiment is classed as cell-based. How it is done:
as §1

In experiment [5] the test system is C33a cells. Put plainly: Cell viability after p53 siRNA knockdown. The note with it: p53 siRNA vs scrambled, 10 μM, 48 hrs. The class given is cell-based. How it is done:
C33a cells were transfected with 100 pmol siRNA for p53 (Dharmacon, L-003329-00-0005) or AllStar control (Qiagen) using lipofectamine2000 according to manufacturer’s instructions. The cells were incubated for 24 hrs and then split and incubated with 10 μM compounds. Cell viability was measured after 48 hours by Cell Titer Glo. Efficiency of knockdown was determined by quantitative RT-PCR using SYBR green.

The test system of experiment [6] is proteasome chymotrypsin-like activity. Put plainly: Proteasome-Glo chymotrypsin-like activity. To be noted: C33a cells, 2 hrs, 10 μM or 30 μM. The class given is cell-based.
The test system of another experiment is HCT116 cells. Put plainly: Cell viability, HCT116 (wtHCT116 and p53-null mutHCT116). The class given is cell-based.
The next experiment relates to siHA cells. Put plainly: Cell viability (Cell Titer Glo), siHA. The note with it: 48h. The experiment is classed as cell-based. How it is done:
as §1

In experiment [7] the test system is C33a cells. Put plainly: Annexin V/PI staining by flow cytometry. The class given is cell-based. How it is done: as §1
(In general: In flow cytometry, cells or beads pass a laser one at a time.)

For the compound `COc1ccc(/C=C/c2ccc3cccc(O)c3n2)cc1OC` [compound 4], the “cell viability (Fig 5D)” value was “decreased viability” in the experiment on HeLa cells (HeLa); “decreased viability” in the experiment on SQ20B cells; “decreased viability” in the experiment on C33a cells [4] (C33a, mutant p53); “decreased viability” with HCT116 cells (HCT116, wild type p53). Further, the IC50 in the experiment on HeLa cells (HeLa cells, 48 hrs, Cell Titer Glo) amounted to 4500 nM; in the experiment on C33a cells [4] (C33a cells, 48 hrs, Cell Titer Glo) it was 2300 nM. In addition, the “cell viability at 30 μM” value with HeLa cells (HeLa, 30 μM, 48h) is reported as “decreased viability”; in the experiment on C33a cells [4] (C33a, 30 μM, 48h), “decreased viability”; in the experiment with siHA cells, “decreased viability”. Further, in the experiment on C33a cells [1], the cell cycle distribution result was “normal cell cycle distribution”. Further, the Kd at p53 [2] turned out to be 200 ± 52 nM. Also, on E6AP, the “affinity for E6AP” value was “did not have detectable affinity”. In addition, at p53 [3], the “nuclear accumulation of p53 in nuclear fraction compared to vehicle” value was “higher levels of nuclear accumulation of p53”. Further, the “effect of p53 gene knockdown on C33a sensitivity to compound” value in the experiment with C33a cells [5] was “significantly reversed”. Moreover, the chymotrypsin-like proteasome activity result in experiment [6] is listed as “did not significantly reduce”. In the experiment on HCT116 cells (10 μM, percent viability mutHCT116 divided by wtHCT116), the “viability of mutHCT116 cells relative to wtHCT116 cells” value stood at 2.5±0.5 fold. The “apoptotic and necrotic cells” value with C33a cells [7] is “increased both the number of apoptotic and necrotic cells”.
